Measurements published in PMC3581469, “Bombesin Analogue-Mediated Delivery Preferentially Enhances the Cytotoxicity of a Mitochondria-Disrupting Peptide in Tumor Cells” (PLoS ONE, 2013).
Where no end group is shown, it is not given here.

Experiments:
DU145 and PC-3 cells = assay: Cytotoxicity assay (CCK-8 cell viability); format: cell-based, human; conditions: 1 h; for cytotoxicity (in words): increasing concentrations, CCK-8
Description: (§1) Cells were seeded at a density of 1×10^4 per well in a 96-well plate, were grown overnight and were co-incubated at 37°C for 1 h with increasing concentrations of the peptide in 100 µl RPMI 1640 supplemented with 2% FBS. Subsequently, the peptide solution was replaced by 100 µl fresh medium. To determine cell viability, 10 µl CCK-8 was added to the well, and the cultures were incubated for an additional 2–4 h. The absorbance was then measured at 450 nm (with a reference wavelength at 620 nm), and cell viability was calculated as the percentage of the value relative to the absorbance of the cells incubated without peptide. The IC50 values of the peptides were calculated from the respective cell viability curves. Simultaneously, the LIVE/DEAD BacLight bacterial viability kit was used to visualize the cytotoxicity of the peptides. Combined incubation with SYTO 9 (15 µM) and propidium iodide (PI, 2.5 µg/ml) stained the living cells fluorescent green and the dead cells fluorescent red due to their distinct cell membrane permeability.

[1] = test system: tumor cells (PC-3, DU145, MCF-7, MDA-MB-435S); format: cell-based, human
Description: as §1

[2] = test system: normal cells (HSF, PrSC, SMC, MRC-5); format: cell-based, human; conditions: 1 h
Description: as §1

DU145 cells [3] = assay: FITC-Annexin V/PI staining, FACS analysis of apoptosis and necrosis; format: cell-based, human
Description: Phosphatidylserine exposed on the outer membrane reflects the early stages of apoptosis and can be detected by FITC-Annexin V and PI staining. The cells were detached and washed with medium. One-hundred and fifty thousand cells were suspended in 300 µl of RMPI 1640 supplemented with 10% FBS and treated with the peptide at the indicated concentration and time points. Then, the cells were subjected to dual staining with FITC-Annexin V and PI, according to the manual. The cells were observed under a fluorescence microscope and subjected to FACS analysis. Cells showing Annexin V−/PI-, Annexin V+/PI-, and Annexin V+/PI+ signals are considered to be living, early stage apoptotic, and either late stage apoptotic or necrotic, respectively. To assess DNA damage during apoptosis, the TUNEL assay was performed in accordance with the manufacturer’s instruction. Briefly, after treatment for 30 min-1 h with the peptide, cells were washed twice with PBS, fixed with 4% paraformaldehyde for 10–15 min at room temperature, permeabilized with 0.1% Triton X-100 for 2 min on ice, incubated in the reaction mixture and observed under a fluorescence microscope. FITC labeled nucleotides incorporated into the nuclei reflects DNA degradation. For investigating the activation of caspases, cells were preincubated with the Pan-caspase inhibitor, Z-VAD-FMK (100 µM), for 2 h before peptide treatment in the cytotoxicity assay. Immunofluorescence staining of caspase-3 was performed by using the Alexa Fluor 488-conjugated antibody against human cleaved caspase-3. The activation of caspase-3 was further verified by using a caspase-3 colorimetric assay kit (Genescript, Nanjing, China) with TNF-related apoptosis-inducing ligand (TRAIL) as a positive control. The activity of caspase-3 was presented as fold of peptide-treated cells vs untreated cells.

DU145 tumor xenografts = assay: DU145 tumor xenograft model in BALB/c nude mice; format: in vivo, mouse
Description: (§2) All of the protocols used for in vivo experiments were approved by the University Animal Care and Use Committee. Four to six-week-old male BALB/c nu/nu mice were purchased from the University Animal Production Center. Seven million DU145 cells suspended in 200 µl PBS were subcutaneously injected into the left flank region of mice. On day 7–9 post inoculation, the mice were randomized into three groups (n = 5) and intraperitoneally (i.p.) received 15 mg/kg B28Bn(6–14), B28 or an equivalent volume of PBS once daily for 7 consecutive days. Alternatively, the mice intratumorally received 5 mg/kg drug once daily for 5 consecutive days. The tumor volume was calculated as length×width^2×0.5. At the end of i.p. therapy, the animals were sacrificed and the major organs were excised, paraffin-embedded, sectioned, and stained with hematoxylin/eosin (H&E) for the examination of histopathologic architecture. To evaluate the cytotoxicity on tumor cells in vivo, a single dose of 50 µg of peptide in 50 µl of PBS was injected into the tumor graft (200–300 mm^3), according to the method described previously. At 24 h post-injection, the animals were sacrificed, and the tumor tissues were routinely stained with H&E.

DU145 cells [4] = assay: LDH release (Cytotox 96 non-radioactive cytotoxicity assay), necrosis; format: cell-based, human; conditions: 5 µM, 1 h
Description: Necrosis was evaluated with the Cytotox 96 non-radioactive cytotoxicity assay kit by detecting the release of lactate dehydrogenase (LDH) from necrotic cells. Ten-thousand cells were plated in a 96-well plate and treated with the peptide in 100 µl of RMPI 1640 supplemented with 2% FBS for 10 min-2 h, followed by LDH detection with 50 µl of culture supernatant from the treated cells, according to the manufacturer’s instruction. The LDH level was presented as the percentage relative to that of cells treated with 0.9% Triton X-100.

DU145 tumor cells = assay: Live/Dead staining with SYTO 9 and PI; format: cell-based, human; conditions: 5 µM, 45 min, SYTO 9/PI
Description: as §1

liver and kidney = conditions: mouse, in vivo, ip, 15 mg/kg
Description: as §2

CSCC[C@H](NC(=O)[C@H](CC(C)C)NC(=O)[C@H](Cc1c[nH]cn1)NC(=O)CNC(=O)[C@@H](NC(=O)[C@H](C)NC(=O)[C@H](Cc1c[nH]c2ccccc12)NC(=O)[C@H](CCC(N)=O)NC(=O)[C@@H](N)CC(N)=O)C(C)C)C(N)=O [Bn(6–14), reference compound]
cytotoxicity (in words) (DU145 and PC-3 cells): no obvious cytotoxicity

GGLRSLGRKILRAWKKYGQRLGNQ-NH2 [B28Bn(2–7)]
cytotoxicity / loss of cell viability (DU145 and PC-3 cells; 10 µM peptide, CCK-8, RPMI 1640 with 2% FBS): less than 40%
cytotoxicity (in words) (DU145 and PC-3 cells): moderate cytotoxicity

GGLRSLGRKILRAWKKYGNQWAVGHLM-NH2 [B28Bn(6–14)]
loss of cell viability ([1]; 10 µM, 1 h, CCK-8): over 90%
IC50 ([1]; 1 h): 1.7 to 3.5 µM
IC50 in tumor cells, times lower than B28 ([1]; IC50 ratio versus unconjugated B28): approximately 10 times
IC50 [2]: 10.8 to 16.8 µM
Annexin V+/PI+ cells (necrotic) (DU145 cells [3]; 2.5 µM, 10 min, 0 µM 0.24): 1.94%
early apoptotic cells (Annexin V+/PI-) (DU145 cells [3]; 2.5 µM, 10 min, 0 µM 3.80): 18.05%
Annexin V+/PI+ cells (necrotic) (DU145 cells [3]; 5 µM, 1 min): 8.84%
early apoptotic cells (Annexin V+/PI-) (DU145 cells [3]; 5 µM, 1 min, 0 min 3.63): 36.99%
Annexin V+/PI+ cells (necrotic) (DU145 cells [3]; 5 µM, 5 min): 16.25%
early apoptotic cells (Annexin V+/PI-) (DU145 cells [3]; 5 µM, 5 min): 32.94%
Annexin V+/PI+ cells (necrotic) (DU145 cells [3]; 5 µM, 10 min): 15.30%
early apoptotic cells (Annexin V+/PI-) (DU145 cells [3]; 5 µM, 10 min): 39.19%
Annexin V+/PI+ cells (necrotic) (DU145 cells [3]; 5 µM, 15 min): 36.88%
early apoptotic cells (Annexin V+/PI-) (DU145 cells [3]; 5 µM, 15 min): 35.36%
Annexin V+/PI+ cells (necrotic) (DU145 cells [3]; 10 µM, 10 min): 29.93%
early apoptotic cells (Annexin V+/PI-) (DU145 cells [3]; 10 µM, 10 min): 43.18%
mean tumor volume (DU145 tumor xenografts; intraperitoneal 15 mg/kg once daily for 7 days, day 30, n = 5, mean±SD, PBS 421±87): 179±42 mm^3
mean tumor volume (DU145 tumor xenografts; intratumoral 5 mg/kg once daily for 5 days, day 45, n = 5, mean±SD, PBS 1344±286): 225±124 mm^3
necrotic cells detected by LDH assay (percentage of max release with 0.9% Triton X-100) (DU145 cells [4]): less than 10%
dead cells (red fluorescence) (DU145 tumor cells): over 90%
histological damage in liver and kidneys (liver and kidney): no obvious histological damage
